According to ChEMBL document CHEMBL4342498, “Design and Discovery of an Orally Efficacious Spiroindolinone-Based Tankyrase Inhibitor for the Treatment of Colon Cancer” (J Med Chem, 2020):
Blank lines part the entries; values can stand above or below the compound they belong to. The source made the active and inactive calls. The rule behind the calls is not given here.

Assays:
COLO 320DM = assay: Antitumor activity against human COLO320DM cells xenografted in Prkdc-NOD-SCID CB17 mouse assessed as tumor growth inhibition; assay type: functional
[1] = Stability in mouse liver microsomes assessed as parent compound remaining at 1 uM measured after 30 mins in presence of NADPH by LC-MS/MS analysis; assay type: ADME, Microsome; conditions: read-out: Stability
[2] = Toxicity in human COLO320DM cells xenografted Prkdc-NOD-SCID CB17 mouse assessed as behavioral changes at 50 mg/kg, ip administered twice daily for 5 days followed by 2 days interval for 2 cycles; conditions: in vivo
[3] = Toxicity in human COLO320DM cells xenografted Prkdc-NOD-SCID CB17 mouse assessed as reduction in appetite at 50 mg/kg, ip administered twice daily for 5 days followed by 2 days interval for 2 cycles; conditions: in vivo
[4] = molecular target: T1, Protein mono-ADP-ribosyltransferase PARP10 (Homo sapiens, UniProt Q53GL7); assay: Inhibition of human recombinant N-terminal TEV-cleavgae site-fused-FLAG/Polyhis-tagged PARP10 […] expressed in Escherichia coli assessed as reduction in auto-PARylation using histone as substrate measured after 45 mins in presence of biotinylated-NAD+ by ELISA
T1 sequence (Q53GL7 whole entry): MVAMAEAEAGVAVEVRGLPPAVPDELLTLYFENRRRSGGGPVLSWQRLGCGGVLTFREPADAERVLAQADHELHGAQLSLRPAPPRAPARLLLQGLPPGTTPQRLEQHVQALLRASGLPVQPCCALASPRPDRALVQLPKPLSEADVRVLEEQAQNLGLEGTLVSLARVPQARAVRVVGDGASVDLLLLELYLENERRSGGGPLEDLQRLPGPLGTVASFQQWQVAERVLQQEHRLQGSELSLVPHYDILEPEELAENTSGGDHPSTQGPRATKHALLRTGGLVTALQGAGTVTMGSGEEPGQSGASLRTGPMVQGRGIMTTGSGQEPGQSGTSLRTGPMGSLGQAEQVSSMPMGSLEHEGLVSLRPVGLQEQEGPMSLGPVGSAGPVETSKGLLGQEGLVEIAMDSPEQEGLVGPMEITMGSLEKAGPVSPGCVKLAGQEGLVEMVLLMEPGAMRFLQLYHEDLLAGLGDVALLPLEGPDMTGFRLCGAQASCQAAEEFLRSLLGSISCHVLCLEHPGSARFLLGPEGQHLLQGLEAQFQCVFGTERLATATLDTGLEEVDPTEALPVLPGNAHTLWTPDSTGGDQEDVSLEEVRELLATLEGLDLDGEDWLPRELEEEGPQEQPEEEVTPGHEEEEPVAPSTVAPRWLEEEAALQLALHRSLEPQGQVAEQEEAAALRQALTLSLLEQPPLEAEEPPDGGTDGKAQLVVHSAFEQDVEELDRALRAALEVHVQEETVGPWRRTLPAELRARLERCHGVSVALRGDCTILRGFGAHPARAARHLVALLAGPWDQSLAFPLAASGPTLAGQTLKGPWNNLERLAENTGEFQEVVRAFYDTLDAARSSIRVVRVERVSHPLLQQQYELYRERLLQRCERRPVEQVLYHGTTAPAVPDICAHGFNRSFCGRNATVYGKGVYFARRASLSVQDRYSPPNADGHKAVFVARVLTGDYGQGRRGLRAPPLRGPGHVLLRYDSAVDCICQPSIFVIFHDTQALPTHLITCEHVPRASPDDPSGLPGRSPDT

Cytochrome P450 2C19 = Cytochrome P450 2C19 (Homo sapiens, UniProt P33261); assay: Inhibition of CYP2C19 in human liver microsomes using (S)-mephenytoin as substrate preincubated for 5 mins followed by NADPH addition and measured for 10 to 30 mins by LC-MS/MS analysis; assay type: ADME
Sequence of Cytochrome P450 2C19 (P33261 whole entry): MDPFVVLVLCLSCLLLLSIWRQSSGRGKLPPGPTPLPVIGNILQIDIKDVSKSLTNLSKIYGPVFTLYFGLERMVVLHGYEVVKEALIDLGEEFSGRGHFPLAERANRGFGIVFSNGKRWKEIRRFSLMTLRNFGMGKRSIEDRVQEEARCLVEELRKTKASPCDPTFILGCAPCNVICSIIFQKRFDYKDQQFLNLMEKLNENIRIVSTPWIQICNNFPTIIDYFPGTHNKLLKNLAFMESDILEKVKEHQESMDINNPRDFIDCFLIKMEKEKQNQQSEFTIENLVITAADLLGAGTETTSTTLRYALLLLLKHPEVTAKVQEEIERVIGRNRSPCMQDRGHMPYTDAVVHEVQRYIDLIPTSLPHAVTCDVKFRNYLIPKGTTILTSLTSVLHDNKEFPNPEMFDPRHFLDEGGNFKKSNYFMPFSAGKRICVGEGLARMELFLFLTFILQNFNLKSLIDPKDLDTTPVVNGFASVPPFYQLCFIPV

Cytochrome P450 2D6 = Cytochrome P450 2D6 (Homo sapiens, UniProt P10635); assay: Inhibition of CYP2D6 in human liver microsomes using bufuralol as substrate preincubated for 5 mins followed by NADPH addition and measured for 10 to 30 mins by LC-MS/MS analysis; assay type: ADME
Sequence of Cytochrome P450 2D6 (P10635 whole entry): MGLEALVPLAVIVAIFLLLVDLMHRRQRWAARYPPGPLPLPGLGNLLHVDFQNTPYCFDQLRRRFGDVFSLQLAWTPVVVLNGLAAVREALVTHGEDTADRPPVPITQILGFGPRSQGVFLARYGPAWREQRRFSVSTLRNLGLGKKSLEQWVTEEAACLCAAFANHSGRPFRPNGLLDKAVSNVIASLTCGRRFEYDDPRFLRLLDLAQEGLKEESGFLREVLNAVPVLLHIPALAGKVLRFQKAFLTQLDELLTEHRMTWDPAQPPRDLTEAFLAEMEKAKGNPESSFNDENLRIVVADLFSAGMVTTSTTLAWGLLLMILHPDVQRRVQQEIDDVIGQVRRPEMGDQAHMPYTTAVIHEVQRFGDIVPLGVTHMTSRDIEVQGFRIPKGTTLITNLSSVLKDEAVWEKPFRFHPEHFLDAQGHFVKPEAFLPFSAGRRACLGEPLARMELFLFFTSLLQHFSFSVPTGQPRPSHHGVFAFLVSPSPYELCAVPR

[5] = Tmax in ICR mouse at 20 mg/kg, ip; assay type: ADME, organism-based; conditions: in vivo
[6] = Half life in ICR mouse at 20 mg/kg, ip; assay type: ADME, organism-based; conditions: in vivo
[7] = molecular target: Poly [ADP-ribose] polymerase 2 (Homo sapiens, UniProt Q9UGN5); assay: Inhibition of human recombinant N-terminal GST-tagged PARP2 (2 to 583 residues) expressed in baculovirus infected Sf9 cells assessed as reduction in auto-PARylation using histone as substrate measured after 45 mins in presence of biotinylated-NAD+ by ELISA
Sequence of Poly [ADP-ribose] polymerase 2 (Q9UGN5 whole entry, the tested form may be a part): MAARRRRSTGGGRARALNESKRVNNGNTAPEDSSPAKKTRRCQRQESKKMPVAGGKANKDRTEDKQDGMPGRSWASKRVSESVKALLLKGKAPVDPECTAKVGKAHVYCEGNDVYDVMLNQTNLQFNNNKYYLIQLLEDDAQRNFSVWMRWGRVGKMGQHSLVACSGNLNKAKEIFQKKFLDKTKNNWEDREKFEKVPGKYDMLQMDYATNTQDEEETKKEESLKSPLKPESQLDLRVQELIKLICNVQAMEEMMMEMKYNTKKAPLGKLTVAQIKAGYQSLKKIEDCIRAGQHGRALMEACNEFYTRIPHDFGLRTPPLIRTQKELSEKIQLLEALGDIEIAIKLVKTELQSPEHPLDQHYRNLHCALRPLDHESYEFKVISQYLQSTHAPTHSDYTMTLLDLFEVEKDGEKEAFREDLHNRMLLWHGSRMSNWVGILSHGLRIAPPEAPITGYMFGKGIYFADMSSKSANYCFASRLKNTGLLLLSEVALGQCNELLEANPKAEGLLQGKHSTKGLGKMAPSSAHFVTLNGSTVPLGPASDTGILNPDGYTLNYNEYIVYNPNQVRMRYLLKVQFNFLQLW

[8] = molecular target: Poly [ADP-ribose] polymerase 1 (Homo sapiens, UniProt P09874); assay: Inhibition of recombinant human PARP1 expressed in Escherichia coli assessed as reduction in auto-PARylation using histone as substrate measured after 45 mins in presence of biotinylated-NAD+ by ELISA
Sequence of Poly [ADP-ribose] polymerase 1 (P09874 whole entry): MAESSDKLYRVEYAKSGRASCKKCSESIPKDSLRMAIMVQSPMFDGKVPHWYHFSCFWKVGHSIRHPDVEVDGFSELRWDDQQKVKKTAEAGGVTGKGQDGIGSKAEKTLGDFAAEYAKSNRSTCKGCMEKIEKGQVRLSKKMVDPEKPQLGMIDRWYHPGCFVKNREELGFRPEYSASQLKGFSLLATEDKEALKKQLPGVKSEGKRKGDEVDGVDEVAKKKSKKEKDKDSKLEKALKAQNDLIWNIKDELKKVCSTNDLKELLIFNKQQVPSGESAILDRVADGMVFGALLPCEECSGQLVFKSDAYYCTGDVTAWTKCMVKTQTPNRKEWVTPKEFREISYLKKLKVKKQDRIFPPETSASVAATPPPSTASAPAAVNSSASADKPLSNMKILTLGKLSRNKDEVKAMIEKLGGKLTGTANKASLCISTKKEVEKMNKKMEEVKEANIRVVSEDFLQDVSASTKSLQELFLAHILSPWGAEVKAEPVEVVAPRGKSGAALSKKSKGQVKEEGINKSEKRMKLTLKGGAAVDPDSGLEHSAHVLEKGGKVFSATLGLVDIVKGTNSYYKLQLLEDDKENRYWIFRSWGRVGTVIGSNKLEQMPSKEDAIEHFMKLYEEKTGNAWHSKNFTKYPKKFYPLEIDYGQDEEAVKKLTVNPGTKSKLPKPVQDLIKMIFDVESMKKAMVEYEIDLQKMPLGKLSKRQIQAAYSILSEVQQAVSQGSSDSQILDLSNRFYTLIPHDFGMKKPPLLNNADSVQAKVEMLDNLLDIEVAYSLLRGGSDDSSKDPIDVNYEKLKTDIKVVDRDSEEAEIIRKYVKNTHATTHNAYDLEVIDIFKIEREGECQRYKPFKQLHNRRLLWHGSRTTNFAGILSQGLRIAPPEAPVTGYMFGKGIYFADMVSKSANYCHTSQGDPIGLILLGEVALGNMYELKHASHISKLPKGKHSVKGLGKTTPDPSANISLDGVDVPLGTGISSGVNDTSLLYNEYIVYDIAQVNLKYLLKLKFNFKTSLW

Cytochrome P450 2C9 = Cytochrome P450 2C9 (Homo sapiens, UniProt P11712); assay: Inhibition of CYP2C9 in human liver microsomes using diclofenac as substrate preincubated for 5 mins followed by NADPH addition and measured for 10 to 30 mins by LC-MS/MS analysis; assay type: ADME
Sequence of Cytochrome P450 2C9 (P11712 whole entry): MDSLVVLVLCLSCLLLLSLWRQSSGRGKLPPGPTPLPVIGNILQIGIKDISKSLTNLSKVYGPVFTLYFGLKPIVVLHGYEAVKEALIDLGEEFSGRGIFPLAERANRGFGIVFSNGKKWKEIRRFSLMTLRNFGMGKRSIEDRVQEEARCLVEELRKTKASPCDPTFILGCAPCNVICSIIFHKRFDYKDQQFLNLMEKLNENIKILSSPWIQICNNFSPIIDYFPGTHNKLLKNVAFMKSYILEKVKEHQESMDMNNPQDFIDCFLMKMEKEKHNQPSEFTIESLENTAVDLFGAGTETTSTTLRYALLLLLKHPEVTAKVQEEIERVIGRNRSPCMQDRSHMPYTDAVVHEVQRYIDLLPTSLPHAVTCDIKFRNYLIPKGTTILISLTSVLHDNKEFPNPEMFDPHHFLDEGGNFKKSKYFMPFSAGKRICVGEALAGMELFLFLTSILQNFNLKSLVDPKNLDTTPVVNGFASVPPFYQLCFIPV

Cytochrome P450 3A4 = Cytochrome P450 3A4 (Homo sapiens, UniProt P08684); assay: Inhibition of CYP3A4 in human liver microsomes using midazolam as substrate preincubated for 5 mins followed by NADPH addition and measured for 10 to 30 mins by LC-MS/MS analysis; assay type: ADME
Sequence of Cytochrome P450 3A4 (P08684 whole entry): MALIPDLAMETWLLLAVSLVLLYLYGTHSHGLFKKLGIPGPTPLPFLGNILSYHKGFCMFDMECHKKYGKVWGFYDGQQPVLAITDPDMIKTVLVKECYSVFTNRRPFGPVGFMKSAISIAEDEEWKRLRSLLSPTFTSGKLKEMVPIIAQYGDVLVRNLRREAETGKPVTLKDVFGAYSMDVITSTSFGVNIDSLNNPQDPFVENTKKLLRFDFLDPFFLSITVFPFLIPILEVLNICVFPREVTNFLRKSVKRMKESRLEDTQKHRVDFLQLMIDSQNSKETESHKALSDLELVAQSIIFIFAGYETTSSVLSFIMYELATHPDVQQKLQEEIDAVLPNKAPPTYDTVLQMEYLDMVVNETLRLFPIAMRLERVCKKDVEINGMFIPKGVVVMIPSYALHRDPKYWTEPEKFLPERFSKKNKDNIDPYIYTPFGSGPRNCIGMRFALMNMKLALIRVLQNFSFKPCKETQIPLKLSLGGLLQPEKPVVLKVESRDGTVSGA

[9] = Volume of distribution at steady state in Sprague-Dawley rat at 3 mg/kg, iv; assay type: ADME, organism-based; conditions: in vivo, read-out: Vdss
[10] = Total clearance in Sprague-Dawley rat at 3 mg/kg, iv; assay type: ADME, organism-based; conditions: in vivo
Mus musculus = assay: In vivo inhibition of TNSK/TNSK2-medited WNT/beta-catenin signaling in human COLO320DM cells xenografted Prkdc-NOD-SCID CB17 mouse assessed as reduction in active-beta catenin expression in tumor nuclear extract at 10 to 20 mg/kg, ip administered twice daily for 5 days followed by 2 days interval for 2 cycles measured 4 hrs post-last dose by Western blot analysis; assay type: functional, organism-based
[11] = Dose normalized initial plasma concentration in Sprague-Dawley rat at 1 mg/kg, iv; assay type: ADME, organism-based; conditions: in vivo
[12] = Plasma concentration in human COLO320DM cells xenografted Prkdc-NOD-SCID CB17 mouse at 20 mg/kg, po administered twice daily for 5 days followed by 2 days interval for 2 cycles measured 4 hrs post-last dose; assay type: ADME, organism-based
[13] = Toxicity in human COLO320DM cells xenografted Prkdc-NOD-SCID CB17 mouse assessed as loss of body weight at 50 mg/kg, ip administered twice daily for 5 days followed by 2 days interval for 2 cycles; conditions: in vivo
[14] = Toxicity in human COLO320DM cells xenografted Prkdc-NOD-SCID CB17 mouse assessed as epithelial degeneration at 50 mg/kg, ip administered twice daily for 5 days followed by 2 days interval for 2 cycles; conditions: in vivo
[15] = Toxicity in human COLO320DM cells xenografted Prkdc-NOD-SCID CB17 mouse assessed as change in body weight at 10 to 20 mg/kg, ip administered twice daily for 5 days followed by 2 days interval for 2 cycles measured during compound dosing; assay type: organism-based; conditions: in vivo

- remaining at 0.5 h, 1 µM [1]: 54.9%
Structure (SMILES): CN1CCN(c2cc(F)c3c(c2)N(C)C(=O)C32CCN(c3nc4c(c(=O)[nH]3)CCCN4C)CC2)CC1
- TGI (COLO 320DM): inactive

- remaining at 0.5 h, 1 µM [1]: 49.7%
- IC50 [4]: 8.05 µM
- IC50 (Cytochrome P450 2C19): > 10 µM
- IC50 (Cytochrome P450 2D6): > 10 µM
- Tmax [5]: 1 h
- half-life [6]: 2.8 h
- IC50 [7]: 1.24 µM
- IC50 [8]: 18.2 µM
- IC50 (Cytochrome P450 2C9): > 10 µM
- IC50 (Cytochrome P450 3A4): > 10 µM
- Vd [9]: 1.02 L/kg
- clearance [10]: 3.17 mL/min/kg
- C0/dose [11]: 15.26 µM
- concentration at 4 h [12]: 23.3 µM
Structure (SMILES): C[C@@H]1CN(c2cc(F)c3c(c2)N(C)C(=O)C32CCN(c3nc4c(c(=O)[nH]3)CCCN4C)CC2)C[C@H](C)O1
- Activity [2]: Toxic
- Activity [3]: Toxic
- inhibition (Mus musculus): inactive
- Activity [13]: Toxic
- Activity [14]: Toxic
- Activity [15]: Non-Toxic
